Results taken from ChEMBL document CHEMBL3621135 (ACS Med Chem Lett, 2015).
Active and inactive are the calls of the source. No cut-off for these calls is given here.

What was measured:
[1] = target: T1, Tyrosine-protein kinase JAK3 (Homo sapiens, UniProt P52333); test: Binding affinity to JAK3 (unknown origin) assessed as dissociation constant
T1 sequence (P52333 whole entry): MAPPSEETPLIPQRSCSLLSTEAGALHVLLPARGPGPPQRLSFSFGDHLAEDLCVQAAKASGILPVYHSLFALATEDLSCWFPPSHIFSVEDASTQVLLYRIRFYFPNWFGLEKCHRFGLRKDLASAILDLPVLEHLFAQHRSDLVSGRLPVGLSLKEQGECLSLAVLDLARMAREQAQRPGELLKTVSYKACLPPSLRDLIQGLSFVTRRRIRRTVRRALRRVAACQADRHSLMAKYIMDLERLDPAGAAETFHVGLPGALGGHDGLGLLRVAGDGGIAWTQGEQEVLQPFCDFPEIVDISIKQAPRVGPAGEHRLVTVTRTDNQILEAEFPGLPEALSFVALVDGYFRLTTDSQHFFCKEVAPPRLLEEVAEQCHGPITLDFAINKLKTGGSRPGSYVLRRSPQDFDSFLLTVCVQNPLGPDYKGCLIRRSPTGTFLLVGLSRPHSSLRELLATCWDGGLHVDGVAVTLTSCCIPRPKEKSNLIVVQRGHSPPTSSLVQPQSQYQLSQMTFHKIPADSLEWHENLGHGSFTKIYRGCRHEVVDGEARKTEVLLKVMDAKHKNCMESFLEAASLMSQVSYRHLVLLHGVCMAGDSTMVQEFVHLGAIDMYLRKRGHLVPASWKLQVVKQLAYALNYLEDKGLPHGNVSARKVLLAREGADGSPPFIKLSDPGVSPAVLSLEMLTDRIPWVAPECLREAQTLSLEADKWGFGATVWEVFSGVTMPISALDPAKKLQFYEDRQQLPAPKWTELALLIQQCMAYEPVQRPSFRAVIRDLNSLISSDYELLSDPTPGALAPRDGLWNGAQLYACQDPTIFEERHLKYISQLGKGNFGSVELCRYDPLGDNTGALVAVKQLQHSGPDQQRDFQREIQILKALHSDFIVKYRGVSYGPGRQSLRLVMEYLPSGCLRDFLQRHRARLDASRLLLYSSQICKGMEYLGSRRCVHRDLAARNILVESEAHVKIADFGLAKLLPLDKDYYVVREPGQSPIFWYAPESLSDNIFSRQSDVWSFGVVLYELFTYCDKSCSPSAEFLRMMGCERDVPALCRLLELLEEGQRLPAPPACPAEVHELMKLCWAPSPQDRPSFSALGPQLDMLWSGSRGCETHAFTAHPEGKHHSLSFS

[2] = target: T2, Nuclear receptor subfamily 1 group I member 2 (Homo sapiens, UniProt O75469); test: Activation of PXR (unknown origin); assay type: ADME
T2 sequence (O75469 whole entry): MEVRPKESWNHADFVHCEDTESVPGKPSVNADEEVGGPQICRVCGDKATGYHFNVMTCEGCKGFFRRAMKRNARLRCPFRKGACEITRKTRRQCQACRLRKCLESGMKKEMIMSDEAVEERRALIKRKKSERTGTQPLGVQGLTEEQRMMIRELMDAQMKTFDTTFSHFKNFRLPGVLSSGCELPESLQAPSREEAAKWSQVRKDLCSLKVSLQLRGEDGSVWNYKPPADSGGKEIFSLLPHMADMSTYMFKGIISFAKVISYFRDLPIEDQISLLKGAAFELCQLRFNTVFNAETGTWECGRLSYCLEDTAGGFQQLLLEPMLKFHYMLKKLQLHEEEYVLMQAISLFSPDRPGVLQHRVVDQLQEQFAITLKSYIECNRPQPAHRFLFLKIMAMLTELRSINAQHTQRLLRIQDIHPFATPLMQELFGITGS

[3] = tested on: Rattus norvegicus; test: Toxicity in rat assessed as drug tolerability at 15 mg/kg/day for 2 weeks; assay type: organism-based; conditions: in vivo, 336 h
[4] = Half life in rat at 1 mg/kg, iv and 1 mg/kg, po; assay type: ADME, organism-based; conditions: in vivo
[5] = Half life in cynomolgus monkey at 1 mg/kg, iv and 1 mg/kg, po; assay type: ADME, organism-based, Macaca fascicularis; conditions: in vivo
[6] = tested on: BaF3; test: Antiproliferative activity against IL3-stimulated mouse BAF3 cells incubated for 72 hrs by [3H] thymidine incorporation assay; assay type: functional, cell-based
[7] = Toxicity against human HepG2 cells; assay type: cell-based
[8] = Half in dog liver microsomes; assay type: ADME, Canis lupus familiaris
[9] = Permeability of the compound in pH 7.4 solution by PAMPA method; assay type: physicochemical; conditions: read-out: permeability
[10] = tested on: Mus musculus; test: Oral bioavailability in mouse at 10 mg/kg; assay type: ADME, organism-based; conditions: in vivo
[11] = Toxicity in micronucleus (unknown origin) assessed as induction of clastogenesis by micronucleus assay
[12] = AUC (0 to 24 hrs) in dog; assay type: ADME, organism-based, Canis lupus familiaris; parameters: time < 24 hr; conditions: in vivo
[13] = target: Tyrosine-protein kinase JAK2 (Mus musculus, UniProt Q62120); test: Inhibition of JAK2 in mouse BAF3 cells assessed as reduction in STAT5 phosphorylation incubated for 2 hrs by Western blot method; assay type: cell-based
Tyrosine-protein kinase JAK2 (Mus musculus, UniProt Q62120), sequence (Q62120 whole entry): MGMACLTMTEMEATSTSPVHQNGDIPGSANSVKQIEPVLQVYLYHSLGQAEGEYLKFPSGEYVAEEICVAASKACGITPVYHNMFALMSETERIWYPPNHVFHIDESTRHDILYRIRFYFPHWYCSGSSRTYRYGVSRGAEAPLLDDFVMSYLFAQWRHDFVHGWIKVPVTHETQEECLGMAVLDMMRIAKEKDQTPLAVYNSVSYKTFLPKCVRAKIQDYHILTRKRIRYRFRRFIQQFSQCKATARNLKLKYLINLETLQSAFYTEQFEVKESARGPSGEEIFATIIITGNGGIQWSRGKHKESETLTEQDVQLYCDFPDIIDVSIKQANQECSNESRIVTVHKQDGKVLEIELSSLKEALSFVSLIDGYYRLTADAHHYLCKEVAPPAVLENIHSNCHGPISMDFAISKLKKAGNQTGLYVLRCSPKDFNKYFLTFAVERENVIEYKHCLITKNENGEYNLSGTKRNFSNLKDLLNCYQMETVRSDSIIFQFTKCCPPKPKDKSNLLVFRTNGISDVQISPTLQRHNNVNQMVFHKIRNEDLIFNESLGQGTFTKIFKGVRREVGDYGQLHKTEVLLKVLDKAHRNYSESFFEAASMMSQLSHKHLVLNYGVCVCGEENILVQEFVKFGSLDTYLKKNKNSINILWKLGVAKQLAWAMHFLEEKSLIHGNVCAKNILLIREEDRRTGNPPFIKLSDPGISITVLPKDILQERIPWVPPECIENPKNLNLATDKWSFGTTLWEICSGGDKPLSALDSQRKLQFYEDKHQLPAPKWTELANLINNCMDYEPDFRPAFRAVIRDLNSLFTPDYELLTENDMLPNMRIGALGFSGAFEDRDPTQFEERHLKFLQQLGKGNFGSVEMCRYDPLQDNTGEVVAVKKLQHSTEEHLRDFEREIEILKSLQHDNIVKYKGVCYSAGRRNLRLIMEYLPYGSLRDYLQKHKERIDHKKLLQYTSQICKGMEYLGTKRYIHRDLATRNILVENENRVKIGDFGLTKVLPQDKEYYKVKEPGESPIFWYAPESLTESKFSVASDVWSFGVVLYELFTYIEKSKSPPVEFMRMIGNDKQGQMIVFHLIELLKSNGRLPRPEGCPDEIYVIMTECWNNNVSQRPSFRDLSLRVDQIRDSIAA

[14] = Volume of distribution at steady state in cynomolgus monkey at 1 mg/kg, iv and 1 mg/kg, po; assay type: ADME, organism-based, Macaca fascicularis; conditions: in vivo, read-out: Vdss
[15] = Oral bioavailability in rat at 1 mg/kg; assay type: ADME, organism-based; conditions: in vivo
[16] = Half in human liver microsomes; assay type: ADME
[17] = target: T3, Tyrosine-protein kinase JAK2 (Homo sapiens, UniProt O60674); test: Inhibition of JAK2 in human SET2 cells assessed as reduction in STAT5 phosphorylation incubated for 2 hrs by Western blot method; assay type: cell-based
T3 sequence (O60674 whole entry): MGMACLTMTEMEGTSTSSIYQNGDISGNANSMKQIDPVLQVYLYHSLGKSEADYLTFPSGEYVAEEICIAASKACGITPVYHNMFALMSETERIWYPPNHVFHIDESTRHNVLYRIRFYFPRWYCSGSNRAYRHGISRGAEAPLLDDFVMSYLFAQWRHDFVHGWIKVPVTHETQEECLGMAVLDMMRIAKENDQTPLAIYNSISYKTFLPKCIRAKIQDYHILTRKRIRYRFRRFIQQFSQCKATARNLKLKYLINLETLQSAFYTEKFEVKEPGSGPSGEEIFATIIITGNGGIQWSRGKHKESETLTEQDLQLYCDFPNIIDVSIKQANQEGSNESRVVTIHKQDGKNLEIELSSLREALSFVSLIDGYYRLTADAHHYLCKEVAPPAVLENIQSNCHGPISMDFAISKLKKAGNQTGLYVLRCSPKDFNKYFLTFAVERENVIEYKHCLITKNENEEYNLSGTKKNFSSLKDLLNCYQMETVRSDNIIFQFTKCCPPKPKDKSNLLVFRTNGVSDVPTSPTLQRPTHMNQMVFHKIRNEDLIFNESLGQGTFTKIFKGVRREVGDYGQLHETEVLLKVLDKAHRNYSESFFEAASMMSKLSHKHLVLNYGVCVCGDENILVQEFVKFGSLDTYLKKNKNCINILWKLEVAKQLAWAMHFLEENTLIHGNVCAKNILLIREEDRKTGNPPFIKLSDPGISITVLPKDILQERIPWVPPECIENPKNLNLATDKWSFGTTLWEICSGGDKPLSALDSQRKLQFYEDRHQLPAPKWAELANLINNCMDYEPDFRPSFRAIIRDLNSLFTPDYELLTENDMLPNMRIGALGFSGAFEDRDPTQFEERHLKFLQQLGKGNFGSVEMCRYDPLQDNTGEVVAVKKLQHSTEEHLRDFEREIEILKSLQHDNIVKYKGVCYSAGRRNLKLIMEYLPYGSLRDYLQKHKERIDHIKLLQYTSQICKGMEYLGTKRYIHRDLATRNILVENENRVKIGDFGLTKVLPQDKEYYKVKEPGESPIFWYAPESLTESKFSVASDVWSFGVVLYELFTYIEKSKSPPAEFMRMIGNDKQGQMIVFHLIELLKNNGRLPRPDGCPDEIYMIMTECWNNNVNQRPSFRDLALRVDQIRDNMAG

[18] = target: T4, hERG (Homo sapiens, UniProt Q12809); test: Inhibition of human ERG channel at 30 uM
T4 sequence (Q12809 whole entry): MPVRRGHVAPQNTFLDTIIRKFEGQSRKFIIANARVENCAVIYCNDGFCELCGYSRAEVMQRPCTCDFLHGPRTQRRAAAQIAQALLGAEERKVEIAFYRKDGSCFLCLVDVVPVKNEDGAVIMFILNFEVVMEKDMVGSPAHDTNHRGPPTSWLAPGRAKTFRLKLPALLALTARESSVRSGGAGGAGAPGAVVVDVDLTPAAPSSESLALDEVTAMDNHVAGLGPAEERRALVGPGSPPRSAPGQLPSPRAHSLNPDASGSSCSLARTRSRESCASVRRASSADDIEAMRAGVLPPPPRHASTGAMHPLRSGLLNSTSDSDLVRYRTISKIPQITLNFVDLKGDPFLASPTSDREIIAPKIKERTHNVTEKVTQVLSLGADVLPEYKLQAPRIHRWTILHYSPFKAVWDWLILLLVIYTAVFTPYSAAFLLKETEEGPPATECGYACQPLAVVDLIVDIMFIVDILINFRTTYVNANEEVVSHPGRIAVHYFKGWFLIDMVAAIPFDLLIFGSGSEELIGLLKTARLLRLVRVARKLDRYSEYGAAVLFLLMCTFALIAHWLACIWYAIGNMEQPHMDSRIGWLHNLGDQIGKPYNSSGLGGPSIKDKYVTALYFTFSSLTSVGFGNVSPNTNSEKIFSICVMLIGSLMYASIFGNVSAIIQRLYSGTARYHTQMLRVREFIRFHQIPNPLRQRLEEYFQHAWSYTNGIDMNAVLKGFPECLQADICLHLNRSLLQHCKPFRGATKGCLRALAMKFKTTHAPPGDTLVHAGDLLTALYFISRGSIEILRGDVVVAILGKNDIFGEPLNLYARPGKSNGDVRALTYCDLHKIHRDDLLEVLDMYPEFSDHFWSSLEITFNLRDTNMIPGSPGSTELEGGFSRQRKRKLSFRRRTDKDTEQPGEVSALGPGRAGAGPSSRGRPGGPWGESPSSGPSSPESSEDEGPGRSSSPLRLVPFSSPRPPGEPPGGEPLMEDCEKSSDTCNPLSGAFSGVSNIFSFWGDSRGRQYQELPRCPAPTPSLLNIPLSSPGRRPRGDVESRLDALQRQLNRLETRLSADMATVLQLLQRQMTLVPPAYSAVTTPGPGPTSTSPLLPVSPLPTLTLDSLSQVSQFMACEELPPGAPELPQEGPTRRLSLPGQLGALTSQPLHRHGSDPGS

[19] = Half in mouse liver microsomes; assay type: ADME
[20] = AUC (0 to 8 hrs) in mouse pharamcodynamic model at 5 mg/kg, po; assay type: ADME, organism-based; parameters: dose 5 mg/kg, time < 8 hr, route oral; conditions: in vivo
[21] = AUC (0 to 24 hrs) in rat assessed as drug tolerability at 15 mg/kg/day for 2 weeks measured on day 14; assay type: ADME, organism-based; parameters: time < 24 hr, dose 15 mg/kg/day; conditions: in vivo
[22] = species: Homo sapiens; test: Inhibition of sodium channel (unknown origin) at 10 uM at 1 and 4 Hz stimulation by patch clamp assay
[23] = target: T4, hERG; test: Inhibition of human ERG at 30 uM by patch clamp assay
[24] = Volume of distribution at steady state in mouse at 2 mg/kg, iv and 10 mg/kg, po; assay type: ADME, organism-based; conditions: in vivo, read-out: Vdss
[25] = target: Non-receptor tyrosine-protein kinase TYK2 (Homo sapiens, UniProt P29597); test: Inhibition of recombinant TYK2 (unknown origin) by scintillation counting method
Non-receptor tyrosine-protein kinase TYK2, sequence (P29597 whole entry): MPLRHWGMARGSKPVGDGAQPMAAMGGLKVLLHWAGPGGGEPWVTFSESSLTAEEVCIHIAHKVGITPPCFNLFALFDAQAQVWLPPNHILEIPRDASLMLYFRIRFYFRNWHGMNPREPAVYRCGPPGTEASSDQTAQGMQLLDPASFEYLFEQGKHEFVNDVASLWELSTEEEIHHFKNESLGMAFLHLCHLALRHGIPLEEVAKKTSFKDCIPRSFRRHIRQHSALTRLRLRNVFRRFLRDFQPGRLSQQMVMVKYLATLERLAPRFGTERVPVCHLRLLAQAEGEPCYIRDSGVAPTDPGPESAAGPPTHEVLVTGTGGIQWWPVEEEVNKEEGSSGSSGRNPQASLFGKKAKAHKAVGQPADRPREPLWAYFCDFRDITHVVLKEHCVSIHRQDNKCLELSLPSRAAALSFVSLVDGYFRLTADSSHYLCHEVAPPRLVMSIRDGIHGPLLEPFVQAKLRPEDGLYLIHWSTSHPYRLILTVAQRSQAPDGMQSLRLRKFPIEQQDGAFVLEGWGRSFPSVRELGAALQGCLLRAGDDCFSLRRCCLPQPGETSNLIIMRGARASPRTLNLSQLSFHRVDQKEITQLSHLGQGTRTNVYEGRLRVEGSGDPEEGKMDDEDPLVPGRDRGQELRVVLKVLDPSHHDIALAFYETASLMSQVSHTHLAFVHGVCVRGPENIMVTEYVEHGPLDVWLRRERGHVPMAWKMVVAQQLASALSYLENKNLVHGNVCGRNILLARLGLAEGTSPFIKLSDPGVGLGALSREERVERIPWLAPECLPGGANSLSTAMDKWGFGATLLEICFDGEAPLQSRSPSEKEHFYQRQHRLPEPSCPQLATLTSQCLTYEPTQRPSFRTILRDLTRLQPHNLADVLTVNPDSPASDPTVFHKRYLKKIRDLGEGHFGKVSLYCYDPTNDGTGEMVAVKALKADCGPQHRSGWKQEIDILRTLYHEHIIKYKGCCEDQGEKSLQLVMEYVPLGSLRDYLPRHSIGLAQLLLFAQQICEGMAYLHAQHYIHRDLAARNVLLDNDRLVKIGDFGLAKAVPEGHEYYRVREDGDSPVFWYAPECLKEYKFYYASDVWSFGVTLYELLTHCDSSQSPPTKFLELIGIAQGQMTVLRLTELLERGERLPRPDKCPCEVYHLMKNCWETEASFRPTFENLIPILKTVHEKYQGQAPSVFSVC

[26] = AUC (0 to 8 hrs) in mouse pharamcodynamic model at 30 mg/kg, po; assay type: ADME, organism-based; parameters: dose 30 mg/kg, time < 8 hr, route oral; conditions: in vivo
[27] = tested on: MDA-MB-231; test: Antiproliferative activity against human MDA-MB-231 cells incubated for 72 hrs by [3H] thymidine incorporation assay; assay type: functional, cell-based
[28] = target: T3, Tyrosine-protein kinase JAK2; test: Binding affinity to JAK2 (unknown origin) assessed as dissociation constant
[29] = tested on: Rattus norvegicus; test: Reduction in reticulocytes in rat at 15 mg/kg/day for 2 weeks; assay type: functional, organism-based
[30] = Clearance in rat at 1 mg/kg, iv and 1 mg/kg, po; assay type: ADME, organism-based; conditions: in vivo
[31] = Half life in mouse at 2 mg/kg, iv and 10 mg/kg, po; assay type: ADME, organism-based; conditions: in vivo

Compound: CCn1c(C(=O)N(C2CC2)C2CC2)cc2c3c(ncn3C)c(Nc3cc(C)n(C)n3)nc21 [BMS-911543]
- Kd [1]: 360 nM
- EC50 [2]: > 50000 nM
- Activity [3]: Non-toxic
- half-life [4]: 5 h
- half-life [5]: 2.4 h
- IC50 [6]: 3500 nM
- IC50 [7]: > 50000 nM
- half-life [8]: 1.17 h
- Papp [9]: 69.8 ×10⁻⁶ cm/s
- F [10]: 100%
- Activity [11]: Non-toxic
- AUC(0-t) at 24 h [12]: 610 µM·h
- IC50 [13]: 65 nM
- Vd [14]: 1.1 L/kg
- bioavailability [15]: 100%
- half-life [16]: 0.817 h
- IC50 [17]: 80 nM
- inhibition at 30 µM [18]: 20%
- half-life [19]: 1.8 h
- AUC(0-t) at 8 h [20]: 23 µM·h
- AUC at 24 h [21]: 3200 µM·h
- inhibition [22]: < 10%
- inhibition at 30 µM [23]: 20%
- Vd [24]: 0.26 L/kg
- IC50 [25]: 66 nM
- AUC(0-t) at 8 h [26]: 109 µM·h
- Activity [27]: inactive
- Kd [28]: 0.48 nM
- Activity [29]: Active
- clearance [30]: 0.7 mL/min/kg
- half-life [31]: 5.1 h
